Measured values from patent US20220287936A1, “AN ANTIDANDRUFF COMPOSITION” (Conopco, Inc., d/b/a UNILEVER, priority 2019, published 2022).

System: Malassezia furfur 14521
Assay: Antifungal activity on M. furfur (resazurin viability assay, MIC and ΣFIC synergy evaluation)
Format: cell-based
Conditions: M. furfur 14521, YPD broth, 30° C., 72 hours, resazurin readout
Procedure: The samples as given in Table-1 were subjected to their anti fungal efficacy on M. furfur as described hereinafter.
The test organism used in the assay is Malassezia furfur 14521. The M. furfur were revived from glycerol stock in YPD agar plates (yeast extract peptone dextrose media) containing 1% corn oil. The composition of YPD is yeast extract:10 g/litre, dextrose 20 g/litre, Peptone 20 g/litre and […]. The plates were incubated at 30° C. for 72 hours for forming fungal colonies. A suspension culture of M. furfur was made using the colonies from plates in YPD broth. The optical density of the suspension culture was adjusted to 0.6 using spectrophotometer. This suspension was diluted in the ratio of 1:10 using YPD broth and 100 μl of this culture was added into each well of 96 well test plate. A stock solution of 4× strength of test ingredients (itaconic acid and sodium benzoate) was prepared for each of the concentrations tested eg for 0.125% test concentration of itaconic acid/sodium benzoate a stock of 0.5% was prepared in YPD broth. 50 μl of each of the test ingredient was added to 100 μl of M. furfur culture, making the final volume to 200 μl. In wells containing only one test ingredient, (itaconic acid or sodium benzoate only) 50 μl of test ingredient was added to 100 μl of fungal culture and then made up the volume to 200 μl with YPD broth. The plates were incubated at 30° C. for 72 hours. Post incubation 10 μl of 1% resazurin was added to each well and incubated for 18 hours at 30° C. […] The anti-fungal efficacy of the ingredient or combination of ingredients is calculated based on the colour development.
The combinations of test ingredients with synergistic anti-fungal benefits were evaluated using ΣFIC method. The ΣFIC of the combinations were calculated using the following formula • ΣFIC of combination A+B=[Concentration of A]/MIC of A+[concentration of B]/MIC of B, where MIC is the Minimum inhibitory concentration (MIC) of ingredient. […]

Row | Structure (SMILES) | MIC (Minimum inhibitory concentration) [wt %]
1 | C=C(CC(=O)OC)C(=O)OC [Dimethyl itaconate] | 0.5
2 | C=C(CC(=O)O)C(=O)O [Itaconic acid] | 0.25
3 | O=C([O-])c1ccccc1.[Na+] [Sodium Benzoate] | 0.5
